Measurements as given in US11260132B2, “Engineered liposomes as cancer-targeted therapeutics” (Children's Medical Center Corporation, priority 2017, dated 2022).

System: MDA-MB-436 cells
Experiment: CEL-Dox cytotoxicity, Dojindo cell viability assay (Example 1)
Assay type: cell-based, human
Details: 6 h treatment, grown 48 h, CEL-Dox at 1.5:1
Description: The cytotoxicity of CEL-Dox on TNBC cells were evaluated using a cell viability assay. 5×10^3 cells (MDA-MB-231 and MDA-MB-436) were seeded in each well of a 96 well plate and incubated for 24 h. Cells were treated with (1) PBS, (2) Free Dox, (3) non-specific IgG-conjugated, Dox-encapsulating liposomes (IgG-Dox-LPs), (4) ICAM-1 antibody-conjugated, Dox-encapsulating liposomes (ICAM-1-Dox-LP), (5) EGFR antibody-conjugated, Dox-encapsulating liposomes (EGFR-Dox-LP), and (6) Dox-encapsulating CELs at optimal ICAM-1/EGFR antibody ratios (4.2/1 for MDA-MB-231 cells, and 1.5/1 for MDA-MB-436 cells) at the final liposome concentration of 1 μM lipids per 10^6 cells for 6 hours. Cells were rinsed three times with PBS and grown for 48 hours. Cell viability was determined by a Dojindo cell counting kit using the protocol from the manufacturer (Rockville, Md.).

COc1cccc2c1C(=O)c1c(O)c3c(c(O)c1C2=O)C[C@@](O)(C(=O)CO)C[C@@H]3O[C@H]1C[C@H](N)[C@H](O)[C@H](C)O1 [free Dox, doxorubicin]
half maximal inhibitory concentration (IC50): 0.0355 µg/mL
